Test results: article PMC10425210 (The Journal of Clinical Investigation, 2023)

Experiment: Plasma pharmacokinetics after a single subcutaneous administration of LEN
Format: in vivo, rhesus macaques
Details: for concentration at 8 week: week 8 post dose; for concentration at 9 week: week 9 post dose; for concentration at 10 week: week 10 post dose; for concentration at 11 week: week 11 post dose; for concentration at 12 week: week 12 post dose; for concentration at 14 week: week 14 post dose
Procedure: All animals were housed at Bioqual Inc. For the in vivo SHIV stock titration study, 8 untreated outbred Indian-origin male rhesus macaques aged 3–5 years were challenged intrarectally per round for a total of 5 challenge rounds using increasing virus doses ranging from 0.625 to 100 TCID50, with the 100 TCID50 round performed twice for increased resolution (Supplemental Table 2). Plasma viral load was measured to confirm the infection status. […] Injection sites were monitored daily by veterinary staff for 2 weeks and then weekly through the end of study. On week 7, 11 animals were challenged by the intrarectal route with 1 mL RPMI containing 100 TCID50 SHIV-SF162P3. Whole blood was collected and processed into plasma and PBMCs as necessary for the assessment of routine hematology and clinical chemistry, viral load analysis, serology, and the bioanalysis of drug levels. Animals were considered protected if they remained SHIV negative by a plasma PCR assay and seronegative by enzyme immunoassay through week 10 after challenge.
Rhesus plasma samples were stored frozen at –80°C and thawed, and a 50 μL aliquot of each was treated with 200 μL acetonitrile containing an internal standard. After precipitation of the protein component, a 100 μL aliquot of the supernatant was transferred to a clean 96-well plate and mixed with 200 μL water. A 10 μL aliquot of the above solution was then injected into a Q-Exactive high resolution mass spectrometer from Thermo Electron with electrospray ionization in positive mode.

[1] = male, Indian-origin (outbred), rhesus monkey, plasma, subcutaneous, 5 mg/kg, Plasma LEN (Mean), 5 mg/kg sc
[2] = male, Indian-origin (outbred), rhesus monkey, plasma, subcutaneous, 10 mg/kg, Plasma LEN (Mean), 10 mg/kg sc
[3] = male, Indian-origin (outbred), rhesus monkey, plasma, subcutaneous, 20 mg/kg, Plasma LEN (Mean), 20 mg/kg sc

CC(C)(C#Cc1ccc(-c2ccc(Cl)c3c(NS(C)(=O)=O)nn(CC(F)(F)F)c23)c([C@H](Cc2cc(F)cc(F)c2)NC(=O)Cn2nc(C(F)(F)F)c3c2C(F)(F)[C@@H]2C[C@H]32)n1)S(C)(=O)=O [LEN, Lenacapavir]
dose proportionality of exposure (5 to 20 mg/kg sc): dose-proportional increase
dose proportionality of exposure (50 to 75 mg/kg sc): more than dose-proportional increase
Plasma LEN (animal BM55, 20 mg/kg, week 0 post challenge): 38.60 nM
Plasma LEN (animal BM55, 20 mg/kg, week 6 post challenge): 10.80 nM
Plasma LEN (animal BM55, 20 mg/kg, week 7 post challenge): 7.10 nM
Plasma LEN (animal BM55, 20 mg/kg, week 8 post challenge): 5.30 nM
Plasma LEN (animal BM55, 20 mg/kg, week 9 post challenge): 3.80 nM
Plasma LEN (animal BM55, 20 mg/kg, week 10 post challenge): 4.10 nM
Plasma LEN (animal BN33, 20 mg/kg, week 0 post challenge): 18.60 nM
Plasma LEN (animal BN33, 20 mg/kg, week 6 post challenge): 9.10 nM
Plasma LEN (animal BN33, 20 mg/kg, week 7 post challenge): 5.71 nM
Plasma LEN (animal BN33, 20 mg/kg, week 8 post challenge): 6.90 nM
Plasma LEN (animal BN33, 20 mg/kg, week 9 post challenge): 4.70 nM
Plasma LEN (animal BN33, 20 mg/kg, week 10 post challenge): 4.50 nM
Plasma LEN (animal CO92, 50 mg/kg, week 0 post challenge): 50.08 nM
Plasma LEN (animal CO92, 50 mg/kg, week 1 post challenge): 62.65 nM
Plasma LEN (animal CO92, 50 mg/kg, week 2 post challenge): 47.76 nM
Plasma LEN (animal CO92, 50 mg/kg, week 3 post challenge): 52.01 nM
Plasma LEN (animal CO92, 50 mg/kg, week 4 post challenge): 67.23 nM
Plasma LEN (animal CO92, 50 mg/kg, week 5 post challenge): 66.62 nM
Plasma LEN (animal CO92, 50 mg/kg, week 6 post challenge): 66.12 nM
Plasma LEN (animal CO92, 50 mg/kg, week 7 post challenge): 36.27 nM
Plasma LEN (animal CO92, 50 mg/kg, week 8 post challenge): 42.04 nM
Plasma LEN (animal CO92, 50 mg/kg, week 9 post challenge): 52.87 nM
Plasma LEN (animal CO92, 50 mg/kg, week 10 post challenge): 56.39 nM
Plasma LEN (animal CO92, 50 mg/kg, week 11 post challenge): 43.33 nM
Plasma LEN (animal CO92, 50 mg/kg, week 12 post challenge): 27.05 nM
Plasma LEN (animal CO92, 50 mg/kg, week 13 post challenge): 18.50 nM
Plasma LEN (animal CO92, 50 mg/kg, week 14 post challenge): 13.10 nM
Plasma LEN (animal CO92, 50 mg/kg, week 15 post challenge): 18.82 nM
Plasma LEN (animal CO92, 50 mg/kg, week 16 post challenge): 13.67 nM
Plasma LEN (animal CP67, 75 mg/kg, week 8 post challenge): 37.09 nM
Plasma LEN (animal CP67, 75 mg/kg, week 9 post challenge): 36.45 nM
Plasma LEN (animal CP67, 75 mg/kg, week 10 post challenge): 23.67 nM
Plasma LEN (animal CP67, 75 mg/kg, week 11 post challenge): 20.33 nM
Plasma LEN (animal V229, 20 mg/kg, week 0 post challenge): 37.30 nM
Plasma LEN (animal V229, 20 mg/kg, week 6 post challenge): 15.10 nM
Plasma LEN (animal V229, 20 mg/kg, week 7 post challenge): 8.33 nM
Plasma LEN (animal V229, 20 mg/kg, week 8 post challenge): 6.00 nM
Plasma LEN (animal V229, 20 mg/kg, week 9 post challenge): 3.70 nM
Plasma LEN (animal V229, 20 mg/kg, week 10 post challenge): 4.60 nM
Plasma LEN (animal V411, 50 mg/kg, week 0 post challenge): 143.42 nM
Plasma LEN (animal V411, 50 mg/kg, week 1 post challenge): 64.99 nM
Plasma LEN (animal V411, 50 mg/kg, week 2 post challenge): 55.43 nM
Plasma LEN (animal V411, 50 mg/kg, week 3 post challenge): 47.46 nM
Plasma LEN (animal V411, 50 mg/kg, week 4 post challenge): 28.61 nM
Plasma LEN (animal V411, 50 mg/kg, week 5 post challenge): 19.46 nM
Plasma LEN (animal V411, 50 mg/kg, week 6 post challenge): 17.89 nM
Plasma LEN (animal V411, 50 mg/kg, week 7 post challenge): 11.22 nM
Plasma LEN (animal V411, 50 mg/kg, week 8 post challenge): 7.46 nM
Plasma LEN (animal V411, 50 mg/kg, week 9 post challenge): 7.40 nM
Plasma LEN (animal V411, 50 mg/kg, week 10 post challenge): 5.89 nM
Plasma LEN (animal V411, 50 mg/kg, week 11 post challenge): 3.67 nM
Plasma LEN (animal V411, 50 mg/kg, week 12 post challenge): 2.40 nM
Plasma LEN (animal V411, 50 mg/kg, week 13 post challenge): 3.03 nM
Plasma LEN (animal V411, 50 mg/kg, week 14 post challenge): 2.52 nM
Plasma LEN (animal V411, 50 mg/kg, week 15 post challenge): 2.21 nM
Plasma LEN (animal V411, 50 mg/kg, week 16 post challenge): 1.79 nM
Plasma LEN (animal V417, 75 mg/kg, week 8 post challenge): 23.00 nM
Plasma LEN (animal V417, 75 mg/kg, week 9 post challenge): 32.44 nM
Plasma LEN (animal V417, 75 mg/kg, week 10 post challenge): 33.77 nM
Plasma LEN (animal V426, 75 mg/kg, week 8 post challenge): 36.31 nM
Plasma LEN (animal V426, 75 mg/kg, week 9 post challenge): 52.45 nM
Plasma LEN (animal V426, 75 mg/kg, week 10 post challenge): 38.56 nM
Plasma LEN (animal V426, 75 mg/kg, week 11 post challenge): 38.65 nM
Plasma LEN (animal V430, 50 mg/kg, week 0 post challenge): 117.17 nM
Plasma LEN (animal V430, 50 mg/kg, week 1 post challenge): 47.07 nM
Plasma LEN (animal V430, 50 mg/kg, week 2 post challenge): 55.06 nM
Plasma LEN (animal V430, 50 mg/kg, week 3 post challenge): 44.89 nM
Plasma LEN (animal V430, 50 mg/kg, week 4 post challenge): 40.12 nM
Plasma LEN (animal V430, 50 mg/kg, week 5 post challenge): 30.18 nM
Plasma LEN (animal V430, 50 mg/kg, week 6 post challenge): 23.37 nM
Plasma LEN (animal V430, 50 mg/kg, week 7 post challenge): 9.85 nM
Plasma LEN (animal V430, 50 mg/kg, week 8 post challenge): 6.90 nM
Plasma LEN (animal V430, 50 mg/kg, week 9 post challenge): 7.41 nM
Plasma LEN (animal V430, 50 mg/kg, week 10 post challenge): 7.29 nM
Plasma LEN (animal V430, 50 mg/kg, week 11 post challenge): 3.38 nM
Plasma LEN (animal V430, 50 mg/kg, week 12 post challenge): 2.44 nM
Plasma LEN (animal V430, 50 mg/kg, week 13 post challenge): 1.41 nM
Plasma LEN (animal V430, 50 mg/kg, week 14 post challenge): 1.81 nM
Plasma LEN (animal V430, 50 mg/kg, week 15 post challenge): 1.32 nM
Plasma LEN (animal V435, 75 mg/kg, week 7 post challenge): 3.85 nM
Plasma LEN (animal V435, 75 mg/kg, week 8 post challenge): 2.05 nM
Plasma LEN (animal V435, 75 mg/kg, week 9 post challenge): 2.10 nM
Plasma LEN (animal V435, 75 mg/kg, week 10 post challenge): 1.92 nM
Plasma LEN (animal V470, 50 mg/kg, week 0 post challenge): 100.49 nM
Plasma LEN (animal V470, 50 mg/kg, week 1 post challenge): 40.04 nM
Plasma LEN (animal V470, 50 mg/kg, week 2 post challenge): 48.42 nM
Plasma LEN (animal V470, 50 mg/kg, week 3 post challenge): 50.54 nM
Plasma LEN (animal V470, 50 mg/kg, week 4 post challenge): 46.19 nM
Plasma LEN (animal V470, 50 mg/kg, week 5 post challenge): 35.17 nM
Plasma LEN (animal V470, 50 mg/kg, week 6 post challenge): 44.02 nM
Plasma LEN (animal V470, 50 mg/kg, week 7 post challenge): 26.59 nM
Plasma LEN (animal V470, 50 mg/kg, week 8 post challenge): 17.23 nM
Plasma LEN (animal V470, 50 mg/kg, week 9 post challenge): 20.99 nM
Plasma LEN (animal V470, 50 mg/kg, week 10 post challenge): 19.02 nM
Plasma LEN (animal V470, 50 mg/kg, week 11 post challenge): 17.74 nM
Plasma LEN (animal V470, 50 mg/kg, week 12 post challenge): 12.55 nM
Plasma LEN (animal V470, 50 mg/kg, week 13 post challenge): 11.15 nM
Plasma LEN (animal V470, 50 mg/kg, week 14 post challenge): 8.52 nM
Plasma LEN (animal V470, 50 mg/kg, week 15 post challenge): 6.58 nM
Plasma LEN (animal V470, 50 mg/kg, week 16 post challenge): 6.37 nM
duration of plasma exposures above the paEC95 (8.8 nM) (eleven animals of the 3 highest dosing groups): over 10 weeks
concentration at 8 week [1]: 4.42 nM
concentration at 9 week [1]: 5.79 nM
concentration at 10 week [1]: 3.41 nM
concentration at 11 week [1]: 4.16 nM
concentration at 12 week [1]: 1.87 nM
concentration at 14 week [1]: 1.45 nM
concentration at 8 week [2]: 9.6 nM
concentration at 9 week [2]: 10.1 nM
concentration at 10 week [2]: 8.41 nM
concentration at 11 week [2]: 5.96 nM
concentration at 12 week [2]: 5.13 nM
concentration at 14 week [2]: 3.63 nM
concentration at 8 week [3]: 26.1 nM
concentration at 9 week [3]: 28 nM
concentration at 10 week [3]: 27.9 nM
concentration at 11 week [3]: 15 nM
concentration at 12 week [3]: 9.8 nM
concentration at 13 week (male, Indian-origin (outbred), rhesus monkey, plasma, subcutaneous, 20 mg/kg, Plasma LEN (Mean), 20 mg/kg sc, week 13 post dose): 11.7 nM
concentration at 14 week [3]: 7.07 nM
concentration at 15 week (male, Indian-origin (outbred), rhesus monkey, plasma, subcutaneous, 20 mg/kg, Plasma LEN (Mean), 20 mg/kg sc, week 15 post dose): 6.07 nM
concentration at 16 week (male, Indian-origin (outbred), rhesus monkey, plasma, subcutaneous, 20 mg/kg, Plasma LEN (Mean), 20 mg/kg sc, week 16 post dose): 4.07 nM
concentration at 17 week (male, Indian-origin (outbred), rhesus monkey, plasma, subcutaneous, 20 mg/kg, Plasma LEN (Mean), 20 mg/kg sc, week 17 post dose): 4.4 nM
concentration at 8 week (male, Indian-origin (outbred), rhesus monkey, plasma, subcutaneous, 50 mg/kg, Plasma LEN (Mean), 50 mg/kg sc): 53.7 nM
